Results published in ChEMBL document CHEMBL1154023, “Carbonic anhydrase inhibitors. Inhibition of the beta-class enzyme from the pathogenic yeast Candida glabrata with anions” (Bioorg Med Chem Lett, 2009).

molecular target: T1, Carbonic anhydrase (Candida glabrata CBS 138, UniProt Q6FTL6); assay: Inhibition of Candida glabrata carbonic anhydrase by stopped flow CO2 hydration assay; set-up: species or system Nakaseomyces glabratus
T1 sequence (Q6FTL6 whole entry): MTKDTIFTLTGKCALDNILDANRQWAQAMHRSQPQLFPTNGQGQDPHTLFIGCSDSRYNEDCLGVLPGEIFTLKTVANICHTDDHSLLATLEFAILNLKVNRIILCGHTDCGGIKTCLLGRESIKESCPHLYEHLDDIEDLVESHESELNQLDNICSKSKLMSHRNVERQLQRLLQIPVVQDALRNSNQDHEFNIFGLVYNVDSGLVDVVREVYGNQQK

Ki | SMILES
100 µM | OB(O)c1ccccc1 [PHENYLBORONIC ACID]
110 µM | NS(=O)(=O)O [SODIUM SULFAMATE]
420 µM | NS(N)(=O)=O [SULFAMIDE]
